Measurements: patent publication US20090247461A1, “METHODS FOR THERAPEUTIC TREATMENT OF PAIN” (priority 2004, published 2009)

Legend:
[1] = tested on: sciatic nerve ligation injury model; experiment: Heat test before and after administration of serotonin depletor, opioid antagonist, α- or β-adrenergic receptor blocker; assay type: in vivo, rat; settings: 3 weeks after ligation; for heat test with vs without / before vs after the depletor or blocker, control group: saline control group, 5,7-DHT intradural, naloxone 5 mg/kg, propranolol 10 mg/kg
Description: (§1) A sciatic nerve ligation injury model was prepared by modifying the neuropathic pain model published by Bennett et al. according to the method of Takeba (Pain, Vol. 33, pp. 87-107, 1988; Ehime Igaku (Ehime Medical Journal), Vol. 21, pp. 192-206, 2002). Under anesthesia by inhalation of 3% halothane and nitrous oxide, bilateral sciatic nerves of 8- to 12-week old female Wistar rats (Clea Japan, Inc., Osaka) were exposed and ligated at the central level of the femur along with a 27-gauge injection needle on the both sides by using a 4-0 polyglycolic acid suture at 4 sites at intervals of 1 mm for both sides. Then, the injection needle was removed to prepare a sciatic nerve ligation injury model. The ligation was attained to such a degree that the crural muscles slightly contractable by a stimulus given to the nerve, and care was taken not to cause injury in the axon by the ligation operation itself.
A solution of ginsenoside Rb1 (0.10 or 0.50 μg/μl) in a volume of 120 μl or an equivalent volume of saline was intravenously administered by one-shot to rats 24 hours after the sciatic nerve ligation. Then, ginsenoside Rb1 was intravenously administered continuously by using the continuous injection pump at a dose of 12 μg/day (hereinafter referred to as “S12”) or 60 μg/day (hereinafter referred to as “S60”) and a rate of 0.25 μL/hour for 4 weeks. Similarly, saline was intravenously administered continuously for 4 weeks as the control group.
(§2) To determine thermal paw withdrawal latency, a heat test was performed by using Plantar Test produced by Ugo Basile (Planter test 7370, Ugo Basile, Italy) according to the method of Hargreaves et al. (Pain, Vol. 32, pp. 77-88, 1988). Rats were placed on a plastic table maintained at a temperature of 23 to 24° C. and stimulated on the sole by using a thermal stimulator, and withdrawal latency (seconds) was measured. Occurrence of hyperalgesia was determined on the basis of shortening of the latency. The latency was measured 3 times for both the soles always at an interval of 5 minutes, and the average of the results of 6 times in total of measurements was used as a measured value.
To elucidate the action mechanism of Rb1, examination was performed by using depletors or blockers against substances reported to be involved in the descending pain signal transmission in the spinal cord, such as serotonin depletors, opioid receptor antagonists, α-adrenergic receptor blockers, and β-adrenergic receptor blockers (Biol. Pharm. Bull., 22-7, pp. 691-697, 1999). The heat test was performed 24 hours after the sciatic nerve ligation, and only rats showing an average latency for both feet of 90% or lower of the same before the operation were used. Animals in a number of 48 in total were arbitrarily divided into 8 groups (6 animals per group) to prepare Rb1-administered groups and a control group. A serotonin depletor, opioid receptor antagonist, α-adrenergic receptor blocker and β-adrenergic receptor blocker were each administered 3 weeks after the ligation, the heat test was performed before and after the administration, and the results were compared.
The serotonin depletor, 5,7-dihydroxytryptamine (5,7-DHT, ICN Biomedicals Inc., Ohio, U.S.A), was intradurally administered in an amount of […] 1 week before the measurement, and the heat test was performed 3 weeks after the ligation. Further, the heat test was performed 3 weeks after the ligation, on the following day, 5 mg/kg of the opioid receptor antagonist, naloxone (USP, Rockville, U.S.A), 10 mg/kg of the β-adrenergic receptor blocker, propranolol (SIGMA-ALDRICH Co., St. Louis, U.S.A), and 20 mg/kg of the α-adrenergic receptor blocker, phentolamine (SIGMA-ALDRICH Co., St. Louis, U.S.A), were each subcutaneously injected, and the heat test was performed again one hour later.

[2] = tested on: mice; settings: cited from earlier work
[3] = tested on: sciatic nerve ligation injury model; experiment: Heat test (thermal paw withdrawal latency) in sciatic nerve ligation injury model; assay type: in vivo, rat; settings: continuously administered i.v. for 4 weeks from 24 hours after sciatic nerve ligation (12 or 60 μg/day); 3 weeks after the ligation and thereafter; vs saline control
Description: as §1, with “The ligation was attained to such a degree that the crural muscles slightly contractable by a stimulus given to the nerve, and care was taken not to cause injury in the axon by the ligation operation itself.” left out
as §2

[4] = tested on: sciatic nerve ligation injury model; experiment: Pressure test (von Frey withdrawal threshold) in sciatic nerve ligation injury model; assay type: in vivo, rat; settings: continuously administered i.v. for 4 weeks from 24 hours after sciatic nerve ligation, vs saline control
Description: as §1, with “The ligation was attained to such a degree that the crural muscles slightly contractable by a stimulus given to the nerve, and care was taken not to cause injury in the axon by the ligation operation itself.” left out
To measure the pain threshold for a mechanical stimulus (von Frey withdrawal threshold), the von Frey hair test was performed in the same manner as in the Semmes-Weinstein test (Z. Gesamte Neurol. Psychiat., Vol. 79, pp. 324-333, 1922; Perceptual and Motor Skills, Vol. 14, pp. 351-354, 1962; The Journal of Hand Surgery, Vol. 3, pp. 211-216, 1978), which is clinically performed. […] In this procedure, the pain threshold (g) for the pressure stimuli to both the soles was measured twice for each time, and the average of the results obtained in measurements of 4 times in total was used as a measured value.

[5] = tested on: α2A-adrenergic receptor mRNA; experiment: Measurement of α2A-adrenergic receptor mRNA in the spinal cord by RT-PCR; assay type: in vivo, rat; settings: 60 μg/day i.v. continuously; 3 weeks after sciatic nerve ligation; compared with control group and sham operation group
Description: The spinal cord in the sciatic nerve innervation territory was removed from rats of the sham operation group (n=7) and rats 3 weeks after the sciatic nerve ligation (each n=7) which were intravenously administered with saline or 60 μg/day of ginsenoside Rb1 (S60) continuously from 24 hours after the sciatic nerve ligation, and total RNA was extracted by using ISOGEN (Nippon Gene, Tokyo). The extracted total RNA was treated with DNase, and single-stranded cDNA was synthesized by using oligo-dT primers and Moloney murine leukemia virus reverse transcriptase (Life Technologies, Rockville, USA). The sequences of the primers used in this example were as follows.
PCR was performed under the following condition using Taq polymerase (Takara, Tokyo). For β-actin, after a reaction at 94° C. for 5 minutes, a cycle of heat denaturation at 94° C. for 1 minute, annealing at 55° C. for 1 minute and 30 seconds and elongation at 72° C. for 1 minute and 30 seconds was repeated 25 times. For α2A-adrenergic receptor, after a reaction at 94° C. for 2 minutes, a cycle of heat denaturation at 94° C. for 1 minute, annealing at 60° C. for 1 minute and elongation at 72° C. for 1 minute was repeated 30 times. As the internal control, β-actin was used.

[6] = tested on: α2A-adrenergic receptor protein; experiment: Expression of α2A-adrenergic receptor protein in the spinal cord (immunoblot); assay type: in vivo, rat; settings: 60 μg/day i.v. continuously; 3 weeks after sciatic nerve ligation; compared with control group and sham operation group
Description: The spinal cord in the sciatic nerve innervation territory was removed from rats of the sham operation group (n=3) and rats 3 weeks after the sciatic nerve ligation (each n=3) which were intravenously administered with saline or 60 μg/day of ginsenoside Rb1 (S60) continuously from 24 hours after the sciatic nerve ligation, added to 10 times in volume of 50 mM phosphate buffer, 100 μM pAPMSF, 0.5% Triton-X and 0.5% SDS, and homogenized. The homogenate was added with a half volume of 6% SDS (+β-mercaptoethanol), incubated at 99° C. for 10 minutes and centrifuged at 15,000 rpm and 4° C. for 10 minutes, and the supernatant was used as a sample. Electrophoresis was performed on 10% SDS polyacrylamide, and then the protein was transferred on a polyvinylidine difluoride membrane (Millipore, Bedford, U.S.A.) by using a transblotting apparatus. Western blotting was performed by using anti-α2A-adrenoceptor antibody (ALEXIS BIOCHEMICALS, San Diego, USA) as the primary antibody and anti-rabbit IgG conjugated with alkaline phosphatase (SIGMA Chemicals, St. Louis, U.S.A) as the secondary antibody.

[7] = tested on: transient forebrain ischemia; settings: oral (red ginseng powder) or intraperitoneal (crude ginseng saponin, ginsenoside Rb1) over one week before ischemia; cited from earlier work
[8] = tested on: transient forebrain ischemia; settings: continuously injected into the brain ventricle for 7 days after ischemia, cited from earlier work

NCCc1c[nH]c2c(O)cc(O)cc12 [5,7-DHT, 5,7-dihydroxytryptamine, reference compound]
heat test with vs without / before vs after the depletor or blocker, control group ([1]; phentolamine 20 mg/kg s.c.): no significant difference

CC(C)=CCC[C@](C)(O[C@@H]1O[C@H](CO[C@@H]2O[C@@H](CO)[C@H](O)[C@H]2O)[C@@H](O)[C@H](O)[C@H]1O)[C@H]1CC[C@]2(C)[C@@H]1[C@H](O)C[C@@H]1[C@@]3(C)CC[C@H](O[C@@H]4O[C@H](CO)[C@@H](O)[C@H](O)[C@H]4O[C@@H]4O[C@H](CO)[C@@H](O)[C@H](O)[C@H]4O)C(C)(C)[C@@H]3CC[C@]12C [Rc, ginsenoside Rc]
analgesic effect [2]: analgesic effect

CC(C)=CCC[C@](C)(O[C@@H]1O[C@H](CO)[C@@H](O)[C@H](O)[C@H]1O)[C@H]1CC[C@]2(C)[C@@H]1[C@H](O)C[C@@H]1[C@@]3(C)CC[C@H](O[C@@H]4O[C@H](CO)[C@@H](O)[C@H](O)[C@H]4O[C@@H]4O[C@H](CO)[C@@H](O)[C@H](O)[C@H]4O)C(C)(C)[C@@H]3CC[C@]12C [Rd, ginsenoside Rd]
analgesic effect [2]: analgesic effect

CC(C)=CCC[C@](C)(O[C@@H]1O[C@H](CO)[C@@H](O)[C@H](O)[C@H]1O)[C@H]1CC[C@]2(C)[C@@H]1[C@H](O)C[C@@H]1[C@@]3(C)CC[C@H](O)C(C)(C)[C@@H]3[C@@H](O[C@@H]3O[C@H](CO)[C@@H](O)[C@H](O)[C@H]3O[C@@H]3O[C@@H](C)[C@H](O)[C@@H](O)[C@H]3O)C[C@]12C [Re, ginsenoside Re]
analgesic effect [2]: analgesic effect

CC(C)=CCC[C@](C)(O)[C@H]1CC[C@]2(C)[C@@H]1[C@H](O)C[C@@H]1[C@@]3(C)CC[C@H](O)C(C)(C)[C@@H]3[C@@H](O[C@@H]3O[C@H](CO)[C@@H](O)[C@H](O)[C@H]3O[C@@H]3O[C@H](CO)[C@@H](O)[C@H](O)[C@H]3O)C[C@]12C [Rf, ginsenoside Rf]
analgesic effect [2]: analgesic effect

CC(C)=CCC[C@](C)(O[C@@H]1O[C@H](CO[C@@H]2O[C@H](CO)[C@@H](O)[C@H](O)[C@H]2O)[C@@H](O)[C@H](O)[C@H]1O)[C@H]1CC[C@]2(C)[C@@H]1[C@H](O)C[C@@H]1[C@@]3(C)CC[C@H](O[C@@H]4O[C@H](CO)[C@@H](O)[C@H](O)[C@H]4O[C@@H]4O[C@H](CO)[C@@H](O)[C@H](O)[C@H]4O)C(C)(C)[C@@H]3CC[C@]12C [ginsenoside Rb1]
hyperalgesia (heat test, withdrawal latency) [3]: hyperalgesia was significantly relieved
allodynia (pressure test, von Frey pain threshold) [4]: allodynia was not ameliorated
allodynia (pressure test, von Frey pain threshold) ([4]; listed as Rb1): amelioration of allodynia was not observed
heat test, animals administered vs not administered with 5,7-DHT, Rb1-administered groups ([1]; 5,7-DHT intradurally 60 μL g 1 week before measurement): no significant difference
heat test before and after administration of naloxone, Rb1-administered groups ([1]; naloxone 5 mg/kg s.c., heat test again one hour later): no significant difference
hyperalgesia suppressing effect after administration of phentolamine, Rb1-administered groups ([1]; phentolamine 20 mg/kg s.c., heat test again one hour later): significantly inhibited
heat test before and after administration of propranolol, Rb1-administered groups ([1]; propranolol 10 mg/kg s.c., heat test again one hour later): no significant difference
expression level of the α2A-adrenergic receptor mRNA in the spinal cord [5]: significantly increased
expression level of the α2A-adrenergic receptor protein in the spinal cord [6]: significantly increased
delayed nerve cell death [7]: inhibition of delayed nerve cell death
learning and behavioral impairment [7]: improvement of learning and behavioral impairment
delayed nerve cell death in the hippocampus CA1 region [8]: significantly reduced
response latency in a passive avoidance learning experiment ([8]; dose-dependent, compared with a control): significantly prolonged

C=CCN1CC[C@]23c4c5ccc(O)c4O[C@H]2C(=O)CC[C@@]3(O)[C@H]1C5 [naloxone, reference compound]
heat test with vs without / before vs after the depletor or blocker, control group ([1]; phentolamine 20 mg/kg s.c.): no significant difference

Cc1ccc(N(CC2=NCCN2)c2cccc(O)c2)cc1 [phentolamine, reference compound]
heat test with vs without / before vs after the depletor or blocker, control group ([1]; phentolamine 20 mg/kg s.c.): no significant difference

CC(C)NCC(O)COc1cccc2ccccc12 (stereo not drawn) [propranolol, reference compound]
heat test with vs without / before vs after the depletor or blocker, control group ([1]; phentolamine 20 mg/kg s.c.): no significant difference
